Patent US20110263693A1, “CELASTROL, GEDUNIN, AND DERIVATIVES THEREOF AS HSP90 INHIBITORS” (DANA-FARBER CANCER INSTITUTE, INC., priority 2006, published 2011)

What was measured:
[1] = system: androgen signaling signature in LNCaP cells; test: GE-HTS androgen signaling signature assay / screen; settings: for GE-HTS screen # replicates that score as the androgon deprived state (n = 3): KNN / GE-HTS screen # replicates that score as the androgon deprived state (n = 3): Naïve Bayes classifier (P < 0.05) / GE-HTS screen # replicates that score as the androgon deprived state (n = 3): unweighted summed score (P < 0.05) / GE-HTS screen # replicates that score as the androgon deprived state (n = 3): weighted summed score (P < 0.05): LNCaP, 1 nM R1881 plus compound ~20 μM, 24 hr, count of 3 replicates
[2] = system: LNCaP cells; test: Viability screen, luminescent ATP quantitation assay; settings: 1 nM R1881 plus compound ~20 μM, 3 days
[3] = system: celastrol signature; test: Connectivity Map query with the celastrol signature; type: cell-based, human; design: key to celastrol score (connectivity score): connectivity score, based on Kolmogorov-Smirnov statistic; settings: enrichment of the celastrol signature (1.25 μM celastrol at 6 h, LNCaP) in the compound's Connectivity Map profiles; 6 hr treatment
Summary of the method: (§1)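 LNCaP cells received celastrol 1.25 μM or gedunin 20 μM for 6 h. Each signature was scored by Kolmogorov–Smirnov-based connectivity against 453 build01 profiles, mostly 6 h treatments of MCF7 cells.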

[4] = system: gedunin signature; test: Connectivity Map query with the gedunin signature; type: cell-based, human; design: key to gedunin score (connectivity score): connectivity score, based on Kolmogorov-Smirnov statistic; settings: enrichment of the gedunin signature (20 μM gedunin at 6 hours, LNCaP) in the compound's Connectivity Map profiles; 6 hr treatment
Summary of the method: as §1

[5] = control wells, 1 nM R1881 plus 10 μM casodex, count of n = 336

Row | Compound | GE-HTS screen # replicates that score as the androgon deprived state (n = 3): KNN [1] | GE-HTS screen # replicates that score as the androgon deprived state (n = 3): Naïve Bayes classifier (P < 0.05) [1] | GE-HTS screen # replicates that score as the androgon deprived state (n = 3): unweighted summed score (P < 0.05) [1] | GE-HTS screen # replicates that score as the androgon deprived state (n = 3): weighted summed score (P < 0.05) [1] | viability screen: viability (% [ATP] normalized to R1881-treated control) [2] [%] | GE-HTS screen # replicates that score as the androgon deprived state: KNN [1, 5] | GE-HTS screen # replicates that score as the androgon deprived state: Naïve Bayes classifier (P < 0.05) [1, 5] | GE-HTS screen # replicates that score as the androgon deprived state: unweighted summed score (P < 0.05) [1, 5] | GE-HTS screen # replicates that score as the androgon deprived state: weighted summed score (P < 0.05) [1, 5] | celastrol score (connectivity score) [3] | gedunin score (connectivity score) [4]
1 | COP(=S)(OC)Oc1ccc([N+](=O)[O-])cc1 [methyl parathione] | 3 | 1 | 3 | 0 | – | – | – | – | – | – | –
2 | CC(=O)[C@H]1CC[C@H]2[C@@H]3CC=C4C[C@@H](O)CC[C@]4(C)[C@H]3CC[C@]12C [pregnenolone, reference compound] | 3 | 2 | 0 | 0 | 91.5 | – | – | – | – | – | –
3 | estrone hemisuccinate [reference compound] | 3 | 3 | 0 | 1 | 71.9 | – | – | – | – | – | –
4 | CC(=O)O[C@H]1CC[C@]2(C)[C@H]3C(=O)C=C4[C@@H]5[C@@H](C)[C@H](C)CC[C@]5(C(=O)O)CC[C@@]4(C)[C@]3(C)CC[C@H]2C1(C)C [11-oxoursolic acid acetate] | 3 | 1 | 3 | 2 | – | – | – | – | – | – | –
5 | CC1(C)C(=O)C=C[C@]2(C)[C@H]3CC[C@@]4(C)[C@H](c5ccoc5)OC(=O)[C@H]5O[C@]54[C@]3(C)C=C[C@@H]12 [7-desacetoxy-6,7-dehydrogedunin] | 3 | 3 | 3 | 3 | – | – | – | – | – | – | –
6 | CC(C)(C)c1cc(/C=C(\C#N)C(N)=S)cc(C(C)(C)C)c1O [AG-879, reference compound] | 3 | 2 | 2 | 2 | – | – | – | – | – | – | –
7 | CN(C)CCOC(c1ccccc1)c1ccccc1.Cn1c(=O)c2[nH]c(Cl)nc2n(C)c1=O [dimenhydrinate, reference compound] | 3 | 3 | 0 | 0 | – | – | – | – | – | – | –
8 | CC(=O)O[C@@H]1CC2C(C)(C)[C@H](O)CC[C@]2(C)C2CC[C@@]3(C)[C@H](c4ccoc4)OC(=O)C4OC43[C@@]21C (stereo partly drawn) [3alpha-hydroxydeoxodihydrogedunin] | 3 | 3 | 3 | 3 | – | – | – | – | – | – | –
9 | CC1(C)C(=O)C=C[C@]2(C)[C@H]3CC[C@@]4(C)[C@H](c5ccoc5)OC(=O)[C@H]5O[C@]54[C@]3(C)C(=O)C[C@@H]12 [deacetoxy-7-oxogedunin] | 3 | 3 | 3 | 3 | 69.0 | – | – | – | – | – | –
10 | CC(=O)O[C@H]1CC[C@]2(C)C(C[C@@H](OC(C)=O)[C@]3(C)C4=CC(=O)O[C@H](c5ccoc5)[C@@]4(C)CCC23)C1(C)C (stereo partly drawn) [3-deoxo-3beta-acetoxydeoxydihydrogedunin] | 3 | 3 | 3 | 3 | 51.0 | – | – | – | – | – | –
11 | COc1ccc(C(C)C(=O)c2ccc(O)cc2O)cc1 (stereo not shown) [angolensin] | 3 | 3 | 3 | 3 | – | – | – | – | – | – | –
12 | CC[C@@]1([C@@H]2O[C@@H]([C@H]3O[C@@](O)(CO)[C@H](C)C[C@@H]3C)C[C@@H]2C)CC[C@H]([C@]2(C)CC[C@]3(C[C@H](O)[C@@H](C)[C@@H]([C@@H](C)[C@@H](OC)[C@H](C)C(=O)O)O3)O2)O1 [monensin A, reference compound] | 2 | 2 | 0 | 0 | 113.6 | – | – | – | – | – | –
13 | COC(=O)[C@H](O)[C@H]1C(C)(C)[C@H](OC(C)=O)[C@@H]2CC3=C4CC(=O)O[C@@H](c5ccoc5)[C@]4(C)CC[C@@H]3[C@@]1(C)C2=O [swietenolide-3-acetate] | 2 | 2 | 2 | 2 | – | – | – | – | – | – | –
14 | CC1(C)C(=O)CC[C@]2(C)[C@H]3CC[C@]4(C)C(=CC(=O)O[C@H]4c4ccoc4)[C@]3(C)[C@H](O)C[C@@H]12 [dihydro-7-desacetyldeoxygedunin] | 3 | 2 | 2 | 1 | – | – | – | – | – | – | –
15 | dihydrocelastryl diacetate | 2 | 0 | 3 | 0 | 50.7 | – | – | – | – | – | –
16 | methylnortichexanthone | 3 | 2 | 2 | 2 | – | – | – | – | – | – | –
17 | C=C/C(C)=C\CC1C(C)(O)CCC2C(C)(C)CCCC21C (stereo not shown) [abienol] | 2 | 1 | 3 | 3 | – | – | – | – | – | – | –
18 | CC(=O)O[C@@H]1CC2C(C)(C)CCC[C@]2(C)C2CC[C@]3(C)C(=CC(=O)O[C@H]3c3ccoc3)[C@@]21C (stereo partly shown) [deoxodeoxydihydrogedunin] | 0 | 3 | 2 | 2 | – | – | – | – | – | – | –
19 | avermectin B1 [reference compound] | 3 | 2 | 2 | 2 | – | – | – | – | – | – | –
20 | CC(O)(CS(=O)(=O)c1ccc(F)cc1)C(=O)Nc1ccc(C#N)c(C(F)(F)F)c1 (stereo not shown) [casodex, bicalutamide, reference compound] | – | – | – | – | – | 283 | 268 | 257 | 261 | – | –
21 | CO[C@@H]1[C@@H](OC(N)=O)[C@@H](O)[C@H](Oc2ccc3c(O)c(NC(=O)c4ccc(O)c(CC=C(C)C)c4)c(=O)oc3c2C)OC1(C)C [novobiocin] | – | – | – | – | – | – | – | – | – | 0.167 | 0.261
22 | CCCC(CCC)C(=O)O [valproic acid] | – | – | – | – | – | – | – | – | – | 0.086 | 0.136
23 | C[C@@H](N)[C@H]1CC[C@H](C(=O)Nc2ccncc2)CC1 [Y-27632] | – | – | – | – | – | – | – | – | – | 0 | −0.353
24 | NC(=O)N1c2ccccc2C=Cc2ccccc21 [carbamazepine] | – | – | – | – | – | – | – | – | – | 0.339 | 0.407
